Measured values from patent US20210122730A1, “GLUCOCORTICOID RECEPTOR MODULATORS” (ORIC Pharmaceuticals, Inc., priority 2017, published 2021).

Assays:
GR = biological target: T1, GR (Homo sapiens, UniProt P04150); experiment: In Vitro GR Luciferase Reporter Assay (antagonist mode, CHO-K1-GR-MMTV-Luc reporter cells); format: cell-based
T1 construct: expressed in transfected cells; host or cells: CHO-K1
T1 sequence (P04150 1-777): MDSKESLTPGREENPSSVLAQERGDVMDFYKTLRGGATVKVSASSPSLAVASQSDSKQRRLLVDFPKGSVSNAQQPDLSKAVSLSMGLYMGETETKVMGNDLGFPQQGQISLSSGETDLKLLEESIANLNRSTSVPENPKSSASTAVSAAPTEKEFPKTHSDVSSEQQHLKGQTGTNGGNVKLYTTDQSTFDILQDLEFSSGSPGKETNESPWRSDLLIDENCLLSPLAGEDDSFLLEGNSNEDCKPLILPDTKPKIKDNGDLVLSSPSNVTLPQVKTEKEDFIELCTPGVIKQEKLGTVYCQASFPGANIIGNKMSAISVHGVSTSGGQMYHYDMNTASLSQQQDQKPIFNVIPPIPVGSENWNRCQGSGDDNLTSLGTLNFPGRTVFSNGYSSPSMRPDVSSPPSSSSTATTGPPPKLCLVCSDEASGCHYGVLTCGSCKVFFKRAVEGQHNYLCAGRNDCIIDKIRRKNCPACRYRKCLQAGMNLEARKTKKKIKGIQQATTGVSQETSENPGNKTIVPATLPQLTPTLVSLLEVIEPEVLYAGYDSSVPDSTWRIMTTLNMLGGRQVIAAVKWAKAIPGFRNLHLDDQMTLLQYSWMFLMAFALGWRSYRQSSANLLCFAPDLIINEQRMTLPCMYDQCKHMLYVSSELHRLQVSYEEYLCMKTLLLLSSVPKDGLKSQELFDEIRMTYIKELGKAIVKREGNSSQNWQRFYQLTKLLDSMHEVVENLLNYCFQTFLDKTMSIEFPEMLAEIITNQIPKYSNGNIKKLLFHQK
Method in brief: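 Antagonist mode: compounds (8 serial 1:5 dilutions) added to GR-MMTV-luciferase CHO-K1 reporter cells co-exposed to 10 nM dexamethasone final, in phenol red-free DMEM plus 10% CSS. After roughly 18-24 h at 37° C, OneGlo luminescence read and IC50 calculated.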

CYP2C8 = biological target: T2, CYP2C8 (Homo sapiens, UniProt P10632); experiment: CYP Inhibition Assay (CYP2C8, human liver microsomes, paclitaxel substrate); format: in vitro ADME; settings: pH 7.4; pooled human liver microsomes 0.1 mg/mL, probe substrate paclitaxel
T2 construct: Pooled human microsomes were obtained from Sekisui XenoTech, KS; tissue Sekisui XenoTech, KS; host or cells: pooled human liver microsomes
T2 sequence (P10632 1-490): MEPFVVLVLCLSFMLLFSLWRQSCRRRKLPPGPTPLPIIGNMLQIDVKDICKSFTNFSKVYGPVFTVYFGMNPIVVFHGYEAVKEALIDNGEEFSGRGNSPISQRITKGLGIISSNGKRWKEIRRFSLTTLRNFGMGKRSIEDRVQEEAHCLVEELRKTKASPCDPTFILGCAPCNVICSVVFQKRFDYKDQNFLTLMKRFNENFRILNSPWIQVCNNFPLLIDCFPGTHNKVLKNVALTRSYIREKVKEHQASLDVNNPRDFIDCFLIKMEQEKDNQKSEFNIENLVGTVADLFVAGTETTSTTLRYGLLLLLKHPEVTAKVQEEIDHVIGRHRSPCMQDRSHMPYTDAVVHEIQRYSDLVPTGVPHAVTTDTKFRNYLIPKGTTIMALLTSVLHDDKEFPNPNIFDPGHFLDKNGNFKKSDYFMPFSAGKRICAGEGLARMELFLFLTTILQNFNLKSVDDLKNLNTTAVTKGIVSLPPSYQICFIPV
Procedure: Example B: CYP Inhibition Assay
Objective: To assess the % inhibition of test compounds against CYP2C8 enzyme in human liver microsomes.
Pooled human microsomes were obtained from Sekisui XenoTech, KS, and were used for in vitro assessment of compound inhibitory potential of the major drug metabolizing human CYP enzymes.
Test compounds were dissolved in DMSO as 10 mM stock solutions and diluted to 200 µM in acetonitrile as working solutions. The total concentrations of DMSO and acetonitrile were 0.02% and 0.5%, respectively, in the assay.
The assay was performed in duplicate in a 96-well plate. The reaction mixture ([…]) containing a final concentration of 0.1 mg/mL pooled human liver microsomes, 50 mM potassium phosphate, pH 7.4 buffer, was re-warmed at 37° C. for 5 minutes. The reaction was initiated with NADPH solution which was at 1 mM final concentration, and carried out for 5 minutes at 37° C. It was terminated by the addition of 3-fold volume of quench solution (1:1 acetonitrile:methanol with 0.1% formic acid and the internal standard of tolbutamide). The sample was vortexed, centrifuged at 4,000 rpm for 15 min at 4° C. The incubation in the presence of vehicle (0.02% DMSO and 0.5% acetonitrile) was used as the enzyme activity control. The analyses of metabolite 6α-hydroxypaclitaxel in supernatant was performed with LC-MS/MS method (Sciex API 4500 Qtrap coupled to a Shimadzu LC-20AD HPLC).
The CYP enzyme activity was determined based on the formation of 6a-hydroxypaclitaxel metabolite. The % inhibition was calculated using this equation: % Inhibition=100×(1−Ainactivator/Avehicle), where Ainactivator is the CYP enzyme activity in the presence of test compound, and Avehicle is the CYP activity in the presence of vehicle.

[1] = antagonist assay with 10 nM Dexamethasone, 18-24 hours
[2] = antagonist mode, 10 nM Dexamethasone

| SMILES | IC50 (GR; [1]) [nM] | inhibition at 5 min (CYP2C8) [%] | IC50 (GR; [2]) [nM] |
| --- | --- | --- | --- |
| Cn1cc(C(=O)N(C2CC2)[C@H]2CCC3=Cc4c(cnn4-c4ccc(F)cc4)C[C@]3(C(=O)c3cc(C(F)(F)F)ccn3)C2)cn1 [Example 102, N-cyclopropyl-N-((4aS,6S)-1-(4-fluorophenyl)-4a-(4-(trifluoromethyl)picolinoyl)-4,4a,5,6,7,8-hexahydro-1H-benzo[f]indazol-6-yl)-1-methyl-1H-pyrazole-4-carboxamide] | ≤ 100 | 75 to 90 | – |
| CN([C@H]1CCC2=Cc3c(cnn3-c3ccc(F)cc3)C[C@]2(C(=O)c2ccc(C(F)(F)F)cn2)C1)S(=O)(=O)c1cnn(C)n1 [Example 104, N-((4aS,6S)-1-(4-fluorophenyl)-4a-(5-(trifluoromethyl)picolinoyl)-4,4a,5,6,7,8-hexahydro-1H-benzo[f]indazol-6-yl)-N,2-dimethyl-2H-1,2,3-triazole-4-sulfonamide] | 100 to 1000 | 50 to 75 | – |
| Cn1ccc(S(=O)(=O)[C@@]2(F)CCC3=Cc4c(cnn4-c4ccc(F)cc4)C[C@]3(C(=O)c3cc(C(F)(F)F)ccn3)C2)n1 [Example 114, ((4aS,6S)-6-Fluoro-1-(4-fluorophenyl)-6-((1-methyl-1H-pyrazol-3-yl)sulfonyl)-1,4,5,6,7,8-hexahydro-4aH-benzo[f]indazol-4a-yl)(4-(trifluoromethyl)pyridin-2-yl)methanone] | – | ≤ 25 | ≤ 100 |
| CN([C@H]1CCC2=Cc3c(cnn3-c3ccc(F)cc3)C[C@]2(C(=O)c2ncc(C(F)(F)F)s2)C1)S(=O)(=O)c1cnn(C)c1 [Example 131, N-((4aS,6S)-1-(4-fluorophenyl)-4a-(5-(trifluoromethyl)thiazole-2-carbonyl)-4,4a,5,6,7,8-hexahydro-1H-benzo[f]indazol-6-yl)-N,1-dimethyl-1H-pyrazole-4-sulfonamide] | – | 50 to 75 | ≤ 100 |
| CN([C@H]1CCC2=Cc3c(cnn3-c3ccc(F)cc3)C[C@]2(C(=O)c2ncc(C3CC3)s2)C1)S(=O)(=O)c1cnn(C)c1 [Example 134, N-((4aS,6S)-4a-(5-cyclopropylthiazole-2-carbonyl)-1-(4-fluorophenyl)-4,4a,5,6,7,8-hexahydro-1H-benzo[f]indazol-6-yl)-N,1-dimethyl-1H-pyrazole-4-sulfonamide] | – | 75 to 90 | ≤ 100 |
| CN([C@H]1CCC2=Cc3c(cnn3-c3ccc(F)cc3)C[C@]2(C(=O)c2ncc(C3CC3)s2)C1)S(=O)(=O)c1ccn(C)n1 [Example 140, N-((4aS,6S)-4a-(5-cyclopropylthiazole-2-carbonyl)-1-(4-fluorophenyl)-4,4a,5,6,7,8-hexahydro-1H-benzo[f]indazol-6-yl)-N,1-dimethyl-1H-pyrazole-3-sulfonamide] | – | 75 to 90 | ≤ 100 |
| Cn1ncc(S(=O)(=O)N(C2CC2)[C@H]2CCC3=Cc4c(cnn4-c4ccc(F)cc4)C[C@]3(C(=O)c3cc(C(F)(F)F)ccn3)C2)n1 [Example 142, N-cyclopropyl-N-((4aS,6S)-1-(4-fluorophenyl)-4a-(4-(trifluoromethyl)picolinoyl)-4,4a,5,6,7,8-hexahydro-1H-benzo[f]indazol-6-yl)-2-methyl-2H-1,2,3-triazole-4-sulfonamide] | – | 50 to 75 | ≤ 100 |
| CN([C@H]1CCC2=Cc3c(cnn3-c3ccc(F)cc3)C[C@]2(C(=O)c2ncc(C(F)(F)F)s2)C1)S(=O)(=O)c1ccn(C)n1 [Example 144, N-((4aS,6S)-1-(4-fluorophenyl)-4a-(5-(trifluoromethyl)thiazole-2-carbonyl)-4,4a,5,6,7,8-hexahydro-1H-benzo[f]indazol-6-yl)-N,1-dimethyl-1H-pyrazole-3-sulfonamide] | – | 75 to 90 | ≤ 100 |
| CCN([C@H]1CCC2=Cc3c(cnn3-c3ccc(F)cc3)C[C@]2(C(=O)c2ncc(C(F)(F)F)s2)C1)S(=O)(=O)c1cnn(C)c1 [Example 153, N-ethyl-N-((4aS,6S)-1-(4-fluorophenyl)-4a-(5-(trifluoromethyl)thiazole-2-carbonyl)-4,4a,5,6,7,8-hexahydro-1H-benzo[f]indazol-6-yl)-1-methyl-1H-pyrazole-4-sulfonamide] | – | 50 to 75 | ≤ 100 |
| CCN([C@H]1CCC2=Cc3c(cnn3-c3ccc(F)cc3)C[C@]2(C(=O)c2cc(C(F)(F)F)ccn2)C1)S(=O)(=O)c1ccn(C)n1 [Example 155, N-ethyl-N-((4aS,6S)-1-(4-fluorophenyl)-4a-(4-(trifluoromethyl)picolinoyl)-4,4a,5,6,7,8-hexahydro-1H-benzo[f]indazol-6-yl)-1-methyl-1H-pyrazole-3-sulfonamide] | – | 25 to 50 | ≤ 100 |
| CN([C@H]1CCC2=Cc3c(cnn3-c3ccc(F)cc3)C[C@]2(C(=O)c2cc(C(F)(F)F)ccn2)C1)S(=O)(=O)c1ccnn1C [Example 156, N-((4aS,6S)-1-(4-fluorophenyl)-4a-(4-(trifluoromethyl)picolinoyl)-4,4a,5,6,7,8-hexahydro-1H-benzo[f]indazol-6-yl)-N,1-dimethyl-1H-pyrazole-5-sulfonamide] | – | 75 to 90 | ≤ 100 |
| Cn1ccc(S(=O)(=O)N(C2CC2)[C@H]2CCC3=Cc4c(cnn4-c4ccc(F)cc4)C[C@]3(C(=O)c3ncc(C4CC4)s3)C2)n1 [Example 160, N-cyclopropyl-N-((4aS,6S)-4a-(5-cyclopropylthiazole-2-carbonyl)-1-(4-fluorophenyl)-4,4a,5,6,7,8-hexahydro-1H-benzo[f]indazol-6-yl)-1-methyl-1H-pyrazole-3-sulfonamide] | – | 50 to 75 | ≤ 100 |
| Cn1ccc(S(=O)(=O)N(C2CC2)[C@H]2CCC3=Cc4c(cnn4-c4ccc(F)cc4)C[C@]3(C(=O)c3ncc(C(F)(F)F)s3)C2)n1 [Example 164, N-cyclopropyl-N-((4aS,6S)-1-(4-fluorophenyl)-4a-(5 (trifluoromethyl)thiazole-2-carbonyl)-4,4a,5,6,7,8-hexahydro-1H-benzo[f]indazol-6-yl)-1-methyl-1H-pyrazole-3-sulfonamide] | – | 50 to 75 | ≤ 100 |
| CCN([C@H]1CCC2=Cc3c(cnn3-c3ccc(F)cc3)C[C@]2(C(=O)c2cc(C(F)(F)F)ccn2)C1)S(=O)(=O)c1cnn(C(F)F)c1 [Example 166, 1-(difluoromethyl)-N-ethyl-N-((4aS,6S)-1-(4-fluorophenyl)-4a-(4-(trifluoromethyl)picolinoyl)-4,4a,5,6,7,8-hexahydro-1H-benzo[f]indazol-6-yl)-1H-pyrazole-4-sulfonamide] | – | 25 to 50 | ≤ 100 |
